Broadly, the inhibition is the share of the control response that was lost under treatment. Low values mean a response near the control, high ones a response far below the control. As a reminder, the IC50 is the concentration at which inhibition is half-maximal. A higher IC50 goes with weaker potency. The EC50 is the concentration at which the effect is half-maximal.

This is an account of results in ChEMBL document CHEMBL4265899, “Trisubstituted thiazoles as potent and selective inhibitors of Plasmodium falciparum protein kinase G (PfPKG)” (Bioorg Med Chem Lett, 2018).

Assay [1] deals with Casein kinase I isoform alpha (Homo sapiens) (UniProt P48729). Nature of the assay: Inhibition of human CK1 at 100 nM.
Casein kinase I isoform alpha (Homo sapiens), sequence (P48729 2-337 limits assumed): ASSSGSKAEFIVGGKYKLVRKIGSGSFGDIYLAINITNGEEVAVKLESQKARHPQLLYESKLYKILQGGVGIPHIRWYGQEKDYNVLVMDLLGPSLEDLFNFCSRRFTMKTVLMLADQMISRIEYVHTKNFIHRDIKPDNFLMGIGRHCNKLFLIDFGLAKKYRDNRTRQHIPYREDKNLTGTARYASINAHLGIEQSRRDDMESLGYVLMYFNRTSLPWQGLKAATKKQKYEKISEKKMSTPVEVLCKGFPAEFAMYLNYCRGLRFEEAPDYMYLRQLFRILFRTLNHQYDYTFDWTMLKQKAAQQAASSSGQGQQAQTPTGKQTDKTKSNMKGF
Assay [2] deals with T1, Serine/threonine-protein kinase D1 (Homo sapiens) (UniProt Q15139).
T1 sequence (whole entry): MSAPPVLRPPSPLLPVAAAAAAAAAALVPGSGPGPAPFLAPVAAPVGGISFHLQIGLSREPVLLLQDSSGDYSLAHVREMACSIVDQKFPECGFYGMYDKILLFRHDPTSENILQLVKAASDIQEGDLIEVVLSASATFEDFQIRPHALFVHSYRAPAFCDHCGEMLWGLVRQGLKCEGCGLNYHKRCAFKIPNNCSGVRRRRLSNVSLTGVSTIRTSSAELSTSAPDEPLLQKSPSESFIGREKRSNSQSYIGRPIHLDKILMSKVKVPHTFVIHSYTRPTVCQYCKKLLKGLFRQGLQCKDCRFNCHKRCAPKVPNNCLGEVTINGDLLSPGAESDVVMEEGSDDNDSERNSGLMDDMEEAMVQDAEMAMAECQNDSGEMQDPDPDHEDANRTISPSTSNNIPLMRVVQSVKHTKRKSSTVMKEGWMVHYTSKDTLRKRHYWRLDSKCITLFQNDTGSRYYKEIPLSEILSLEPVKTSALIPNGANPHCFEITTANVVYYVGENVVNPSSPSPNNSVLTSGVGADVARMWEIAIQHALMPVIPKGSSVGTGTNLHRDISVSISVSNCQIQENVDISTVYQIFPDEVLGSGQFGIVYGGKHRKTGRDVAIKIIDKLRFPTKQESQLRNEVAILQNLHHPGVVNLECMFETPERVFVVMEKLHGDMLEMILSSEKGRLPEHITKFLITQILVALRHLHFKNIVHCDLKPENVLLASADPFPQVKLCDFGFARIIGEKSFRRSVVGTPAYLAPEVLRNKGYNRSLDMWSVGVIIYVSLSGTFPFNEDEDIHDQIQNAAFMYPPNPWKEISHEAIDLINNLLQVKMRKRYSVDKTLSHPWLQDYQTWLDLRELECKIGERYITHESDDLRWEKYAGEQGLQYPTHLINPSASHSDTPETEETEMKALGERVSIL
Nature of the assay: Inhibition of human PKD1 at 100 nM.

For another assay, the species on record is Homo sapiens. Conditions: at 100 nM.
For assay [3], the target named is T2, Inhibitor of nuclear factor kappa-B kinase subunit epsilon (Homo sapiens) (UniProt Q14164).
T2 sequence (whole entry): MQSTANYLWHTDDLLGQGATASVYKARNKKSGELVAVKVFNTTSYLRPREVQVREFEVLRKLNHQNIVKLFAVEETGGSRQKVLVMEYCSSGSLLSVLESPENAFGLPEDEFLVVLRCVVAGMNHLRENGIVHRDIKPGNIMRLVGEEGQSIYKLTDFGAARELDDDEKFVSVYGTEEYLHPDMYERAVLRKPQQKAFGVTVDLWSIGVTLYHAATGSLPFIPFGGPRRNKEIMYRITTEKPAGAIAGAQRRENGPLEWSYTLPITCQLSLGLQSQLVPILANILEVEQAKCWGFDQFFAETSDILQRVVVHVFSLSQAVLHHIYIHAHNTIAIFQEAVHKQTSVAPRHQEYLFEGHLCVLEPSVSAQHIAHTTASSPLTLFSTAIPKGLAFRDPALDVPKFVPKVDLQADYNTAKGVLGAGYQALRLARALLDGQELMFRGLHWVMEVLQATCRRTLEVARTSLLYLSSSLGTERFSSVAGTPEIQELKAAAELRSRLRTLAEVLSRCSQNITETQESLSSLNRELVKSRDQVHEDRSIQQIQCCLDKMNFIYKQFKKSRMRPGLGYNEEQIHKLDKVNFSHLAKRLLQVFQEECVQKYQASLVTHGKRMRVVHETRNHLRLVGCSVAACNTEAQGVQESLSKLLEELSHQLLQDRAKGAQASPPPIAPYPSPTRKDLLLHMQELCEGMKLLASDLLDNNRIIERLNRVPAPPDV
Conditions: at 100 nM.
Description: Inhibition of human IKKepsilon at 100 nM

Assay [4] concerns the target Misshapen-like kinase 1 (Homo sapiens) (UniProt Q8N4C8). The assay can be described thus: Inhibition of human MINK1 at 100 nM.
Assay [5] has as its target Receptor tyrosine-protein kinase erbB-4 (Homo sapiens) (UniProt Q15303). Nature of the assay: Inhibition of human HER4 at 100 nM.
Assay [6] concerns the target T3, Inhibitor of nuclear factor kappa-B kinase subunit beta (Homo sapiens) (UniProt O14920).
T3 sequence (whole entry): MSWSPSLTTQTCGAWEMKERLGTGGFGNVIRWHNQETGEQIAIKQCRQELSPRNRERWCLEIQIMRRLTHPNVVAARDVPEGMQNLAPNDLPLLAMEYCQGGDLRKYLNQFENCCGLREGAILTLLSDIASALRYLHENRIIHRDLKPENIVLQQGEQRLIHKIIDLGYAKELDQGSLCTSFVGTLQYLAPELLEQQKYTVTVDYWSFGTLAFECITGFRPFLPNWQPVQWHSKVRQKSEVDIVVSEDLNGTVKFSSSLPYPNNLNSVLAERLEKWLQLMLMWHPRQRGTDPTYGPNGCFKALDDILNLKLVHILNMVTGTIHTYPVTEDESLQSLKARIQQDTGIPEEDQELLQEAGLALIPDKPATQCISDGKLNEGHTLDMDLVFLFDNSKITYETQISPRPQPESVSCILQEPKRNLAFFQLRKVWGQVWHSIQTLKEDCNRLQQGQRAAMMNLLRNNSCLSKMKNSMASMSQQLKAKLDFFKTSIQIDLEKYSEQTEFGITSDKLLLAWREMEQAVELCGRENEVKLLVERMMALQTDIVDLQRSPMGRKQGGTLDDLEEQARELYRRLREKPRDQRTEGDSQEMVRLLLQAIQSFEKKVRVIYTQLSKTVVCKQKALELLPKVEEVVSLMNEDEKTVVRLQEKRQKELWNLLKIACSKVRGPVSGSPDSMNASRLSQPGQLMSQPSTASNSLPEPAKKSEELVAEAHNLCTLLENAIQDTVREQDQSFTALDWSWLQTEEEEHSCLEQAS
Conditions: at 100 nM.
Description: Inhibition of human IKKb at 100 nM

Assay [7] has as its target Tyrosine-protein kinase Yes (Homo sapiens) (UniProt P07947). The assay can be described thus: Inhibition of human YES1 at 100 nM.
Assay [8] deals with Tyrosine-protein kinase Lck (Homo sapiens) (UniProt P06239). The assay can be described thus: Inhibition of human LCK at 100 nM.
Tyrosine-protein kinase Lck (Homo sapiens), sequence (P06239 2-509 limits assumed): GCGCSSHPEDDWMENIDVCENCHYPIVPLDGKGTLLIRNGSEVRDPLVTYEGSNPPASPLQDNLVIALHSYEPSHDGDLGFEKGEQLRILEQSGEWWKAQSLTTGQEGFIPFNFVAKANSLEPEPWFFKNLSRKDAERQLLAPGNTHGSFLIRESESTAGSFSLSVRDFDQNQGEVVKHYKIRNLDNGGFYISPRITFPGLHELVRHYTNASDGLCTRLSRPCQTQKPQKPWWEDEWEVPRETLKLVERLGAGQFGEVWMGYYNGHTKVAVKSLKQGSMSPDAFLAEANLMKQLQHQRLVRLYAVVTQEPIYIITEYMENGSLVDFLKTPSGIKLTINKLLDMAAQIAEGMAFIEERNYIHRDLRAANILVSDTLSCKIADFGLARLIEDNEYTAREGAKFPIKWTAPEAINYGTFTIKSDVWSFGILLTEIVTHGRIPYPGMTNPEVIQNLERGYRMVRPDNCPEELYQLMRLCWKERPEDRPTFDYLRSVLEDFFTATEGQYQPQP
For assay [9], the target named is cGMP-dependent protein kinase (Plasmodium falciparum, UniProt W7JX98). Nature of the assay: Inhibition of Plasmodium falciparum protein kinase G.
cGMP-dependent protein kinase, sequence (W7JX98 whole entry): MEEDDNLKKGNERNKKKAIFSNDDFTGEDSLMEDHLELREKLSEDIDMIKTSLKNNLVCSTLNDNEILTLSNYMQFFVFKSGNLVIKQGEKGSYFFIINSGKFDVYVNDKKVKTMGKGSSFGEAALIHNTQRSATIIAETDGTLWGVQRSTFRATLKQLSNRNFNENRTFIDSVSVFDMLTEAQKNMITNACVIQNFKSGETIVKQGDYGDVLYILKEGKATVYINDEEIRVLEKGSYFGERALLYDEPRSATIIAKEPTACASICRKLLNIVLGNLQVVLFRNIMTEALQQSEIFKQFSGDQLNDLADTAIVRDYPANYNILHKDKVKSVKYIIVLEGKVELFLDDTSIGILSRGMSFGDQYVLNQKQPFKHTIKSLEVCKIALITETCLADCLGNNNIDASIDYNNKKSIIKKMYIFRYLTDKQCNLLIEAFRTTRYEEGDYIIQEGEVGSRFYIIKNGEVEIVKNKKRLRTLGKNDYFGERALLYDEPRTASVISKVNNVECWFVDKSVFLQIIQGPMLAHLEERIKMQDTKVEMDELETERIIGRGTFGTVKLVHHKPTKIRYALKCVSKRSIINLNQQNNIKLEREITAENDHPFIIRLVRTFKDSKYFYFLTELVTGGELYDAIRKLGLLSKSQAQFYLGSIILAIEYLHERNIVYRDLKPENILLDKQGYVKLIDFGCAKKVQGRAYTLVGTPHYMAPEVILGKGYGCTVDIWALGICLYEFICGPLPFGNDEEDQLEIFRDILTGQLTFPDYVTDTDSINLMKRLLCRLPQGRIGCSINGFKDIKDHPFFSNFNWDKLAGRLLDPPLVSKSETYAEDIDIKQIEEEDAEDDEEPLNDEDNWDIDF
The test system of another assay is Plasmodium falciparum. Nature of the assay: Antimalarial activity against Plasmodium falciparum after 48 hrs by microbeta scintillation counting-based [3H]-hypoxanthine incorporation assay. The assay is classed as functional, organism-based.

Misshapen-like kinase 1 (Homo sapiens), sequence (Q8N4C8 whole entry, looked up): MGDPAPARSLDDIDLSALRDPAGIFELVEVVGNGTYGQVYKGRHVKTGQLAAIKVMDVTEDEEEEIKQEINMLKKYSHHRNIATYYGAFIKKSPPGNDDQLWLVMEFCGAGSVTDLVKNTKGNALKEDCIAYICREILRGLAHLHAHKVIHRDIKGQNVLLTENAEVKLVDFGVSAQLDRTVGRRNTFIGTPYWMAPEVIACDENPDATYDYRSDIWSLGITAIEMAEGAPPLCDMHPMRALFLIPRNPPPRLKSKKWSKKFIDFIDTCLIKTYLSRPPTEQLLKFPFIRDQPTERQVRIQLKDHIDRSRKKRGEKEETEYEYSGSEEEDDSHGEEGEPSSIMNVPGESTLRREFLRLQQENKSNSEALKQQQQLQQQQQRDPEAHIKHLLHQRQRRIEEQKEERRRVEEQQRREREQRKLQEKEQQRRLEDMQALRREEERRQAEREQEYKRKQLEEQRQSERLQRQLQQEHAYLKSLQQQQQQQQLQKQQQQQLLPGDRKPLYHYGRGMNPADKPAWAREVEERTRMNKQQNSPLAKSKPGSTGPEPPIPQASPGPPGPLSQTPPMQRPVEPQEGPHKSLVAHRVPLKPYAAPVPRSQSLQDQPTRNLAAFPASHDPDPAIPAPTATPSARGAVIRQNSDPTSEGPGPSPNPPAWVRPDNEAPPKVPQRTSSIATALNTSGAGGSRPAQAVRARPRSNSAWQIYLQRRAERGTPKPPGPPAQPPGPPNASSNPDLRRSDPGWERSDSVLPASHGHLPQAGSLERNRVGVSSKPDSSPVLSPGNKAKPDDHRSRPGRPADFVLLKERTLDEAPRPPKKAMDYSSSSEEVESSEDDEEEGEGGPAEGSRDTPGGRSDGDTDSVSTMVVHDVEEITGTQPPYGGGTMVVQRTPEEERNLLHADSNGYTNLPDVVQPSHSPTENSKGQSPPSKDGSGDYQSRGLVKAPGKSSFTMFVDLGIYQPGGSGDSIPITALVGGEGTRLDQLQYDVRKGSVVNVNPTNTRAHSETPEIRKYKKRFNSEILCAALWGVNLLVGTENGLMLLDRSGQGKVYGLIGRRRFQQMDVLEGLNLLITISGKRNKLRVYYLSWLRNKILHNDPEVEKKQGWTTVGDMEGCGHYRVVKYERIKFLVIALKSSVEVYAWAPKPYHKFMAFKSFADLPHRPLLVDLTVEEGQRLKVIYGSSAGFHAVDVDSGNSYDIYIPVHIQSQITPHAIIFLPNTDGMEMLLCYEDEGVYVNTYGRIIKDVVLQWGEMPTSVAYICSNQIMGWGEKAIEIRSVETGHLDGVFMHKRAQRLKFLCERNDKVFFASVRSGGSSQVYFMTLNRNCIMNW
Receptor tyrosine-protein kinase erbB-4 (Homo sapiens), sequence (Q15303 whole entry): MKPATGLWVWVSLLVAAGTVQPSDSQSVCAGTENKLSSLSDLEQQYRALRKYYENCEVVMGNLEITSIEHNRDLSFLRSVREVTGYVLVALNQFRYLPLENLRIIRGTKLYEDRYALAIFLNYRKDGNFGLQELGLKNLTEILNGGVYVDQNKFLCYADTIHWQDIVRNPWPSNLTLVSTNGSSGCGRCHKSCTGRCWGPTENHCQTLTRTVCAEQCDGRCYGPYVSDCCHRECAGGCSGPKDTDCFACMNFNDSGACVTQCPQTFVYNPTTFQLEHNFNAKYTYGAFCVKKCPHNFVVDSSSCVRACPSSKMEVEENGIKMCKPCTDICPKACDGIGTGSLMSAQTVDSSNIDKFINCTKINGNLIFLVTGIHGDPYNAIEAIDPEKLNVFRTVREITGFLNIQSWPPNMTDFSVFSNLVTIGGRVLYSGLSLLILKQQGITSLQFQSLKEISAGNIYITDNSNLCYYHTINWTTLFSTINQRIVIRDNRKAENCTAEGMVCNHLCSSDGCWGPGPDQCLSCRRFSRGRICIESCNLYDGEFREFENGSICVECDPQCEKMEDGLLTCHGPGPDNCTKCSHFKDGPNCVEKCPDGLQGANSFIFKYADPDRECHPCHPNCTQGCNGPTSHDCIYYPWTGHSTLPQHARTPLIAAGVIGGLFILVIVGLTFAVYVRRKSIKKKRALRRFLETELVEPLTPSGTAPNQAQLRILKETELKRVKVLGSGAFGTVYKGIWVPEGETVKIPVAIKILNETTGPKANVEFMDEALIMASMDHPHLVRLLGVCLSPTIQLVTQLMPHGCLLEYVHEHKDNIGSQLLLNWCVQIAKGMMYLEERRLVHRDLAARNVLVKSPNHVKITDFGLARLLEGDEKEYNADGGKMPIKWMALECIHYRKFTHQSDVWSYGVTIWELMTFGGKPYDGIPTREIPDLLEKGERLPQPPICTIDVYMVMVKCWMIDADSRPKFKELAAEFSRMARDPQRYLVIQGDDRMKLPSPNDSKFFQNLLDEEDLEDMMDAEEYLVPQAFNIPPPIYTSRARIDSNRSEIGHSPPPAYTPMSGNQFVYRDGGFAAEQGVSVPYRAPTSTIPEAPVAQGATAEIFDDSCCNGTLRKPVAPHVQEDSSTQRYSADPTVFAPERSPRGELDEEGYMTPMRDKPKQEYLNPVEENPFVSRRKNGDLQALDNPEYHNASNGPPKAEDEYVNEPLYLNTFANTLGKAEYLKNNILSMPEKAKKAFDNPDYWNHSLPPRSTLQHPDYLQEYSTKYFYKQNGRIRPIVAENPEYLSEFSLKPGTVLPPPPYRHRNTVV
Tyrosine-protein kinase Yes (Homo sapiens), sequence (P07947 2-543 limits assumed): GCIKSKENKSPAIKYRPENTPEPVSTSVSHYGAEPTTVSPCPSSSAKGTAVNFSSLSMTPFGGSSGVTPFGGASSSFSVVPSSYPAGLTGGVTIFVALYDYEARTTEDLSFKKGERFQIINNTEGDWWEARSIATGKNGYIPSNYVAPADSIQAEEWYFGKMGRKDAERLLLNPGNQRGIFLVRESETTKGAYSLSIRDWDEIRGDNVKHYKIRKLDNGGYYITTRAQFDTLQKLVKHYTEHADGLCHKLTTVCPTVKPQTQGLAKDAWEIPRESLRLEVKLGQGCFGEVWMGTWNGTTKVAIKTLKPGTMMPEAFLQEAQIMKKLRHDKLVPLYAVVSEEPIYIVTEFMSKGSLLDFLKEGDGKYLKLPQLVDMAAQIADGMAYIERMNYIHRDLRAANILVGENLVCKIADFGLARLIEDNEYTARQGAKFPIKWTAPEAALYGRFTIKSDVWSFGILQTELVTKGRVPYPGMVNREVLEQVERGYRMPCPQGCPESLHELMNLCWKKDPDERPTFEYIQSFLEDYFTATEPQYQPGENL

`CN1CCC(c2nc(-c3ccc(F)cc3)c(-c3ccnc(Nc4ccc(N5CCNCC5)cc4)n3)s2)CC1`: the inhibition in assay [1] was more than 90%; in [2], more than 90%; in the assay filed under Homo sapiens, less than 70%; in assay [3] it was less than 70%; in assay [4] it was more than 90%; in assay [5] it was more than 90%. Moreover, the inhibition was less than 70% in assay [6], more than 90% in assay [7] and more than 90% in assay [8].
The molecule `CN1CCC(c2nc(-c3ccc(F)cc3)c(-c3ccnc(Nc4ccc(C5CCNCC5)cc4)n3)s2)CC1` displayed an IC50 in [9] of 0.3 nM. This molecule also had an EC50 with Plasmodium falciparum of 25 nM.
For `CNc1nccc(-c2sc(C3CCN(C)CC3)nc2-c2ccc(F)cc2)n1` the same measures were 15 nM and 1490 nM.
In the case of `CN1CCC(c2nc(-c3ccc(F)cc3)c(-c3ccncn3)s2)C1` (stereo not given), the IC50 in assay [9] was 6 nM. Also, in the assay on Plasmodium falciparum, the concentration for a half-maximal effect (EC50) came out at 144 nM.
In the same order, the values of `Fc1ccc(-c2nc(C3CCNCC3)sc2-c2ccnc(Nc3ccc(N4CCNCC4)cc3)n2)cc1` are 0.5 nM and 73 nM.
For `CN1CCC(c2nc(C3CC3)c(-c3ccnc(Nc4ccc(N5CCNCC5)cc4)n3)s2)CC1` the same measures were 47 nM and 90 nM.
For `CN1CCC(c2nc(-c3ccc(F)cc3)c(-c3ccnc(N)n3)s2)CC1` the same measures were 17 nM and 1810 nM.
In [9], `Cc1nc(C2CCN(C)CC2)sc1-c1ccnc(Nc2ccc(N3CCNCC3)cc2)n1` had a half-maximal inhibitory concentration (IC50) of 149 nM.
In turn, `CN1CCC(c2nc(-c3cccc(S(C)(=O)=O)c3)c(-c3ccnc(N)n3)s2)CC1` came in with an IC50 in [9] of 33 nM. Also, in the assay on Plasmodium falciparum, the midpoint of the response, the EC50, lay at 4570 nM.
In the same order, the values of `CN1CCC(c2cc(-c3ccncc3)c(-c3ccc(F)cc3)[nH]2)CC1` are 6 nM and 450 nM.
In assay [9], `CN(C)Cc1ccn2c(-c3ccnc(N)n3)c(-c3ccc(F)cc3)nc2c1` gave an IC50 of 3 nM. Besides, the EC50 in the assay with Plasmodium falciparum is 400 nM.
For `CN1CCC(c2nc(-c3ccc(F)cc3)c(-c3ccnc(Nc4ccc(N5CCN(C)CC5)cc4)n3)s2)CC1` the same measures were 1 nM and 155 nM.
For `CN1CCC(c2nc(-c3cccc(S(C)(=O)=O)c3)c(-c3ccnc(NCC4CC4)n3)s2)CC1` the same measures were 6 nM and 1330 nM.
In the same order, the values of `CN1CCC(c2nc(-c3cccc(S(C)(=O)=O)c3)c(-c3ccnc(NC4CCOCC4)n3)s2)CC1` are 9 nM and 1560 nM.
On to `CN1CCC(c2nc(-c3cccc(S(C)(=O)=O)c3)c(-c3ccnc(NC4CC4)n3)s2)CC1`, for which the IC50 in assay [9] was found to be 17 nM.
